Assays:
Rattus norvegicus = species: Rattus norvegicus; assay: Inhibition of [3H]norepinephrine uptake at NET expressed in rat hypothalamic homogenate containing synaptosomes after 5 mins by scintillation counting analysis relative to (+)-amphetamine; format: subcellular; settings: Brain
[1] = target: Sodium-dependent dopamine transporter (Rattus norvegicus) (UniProt P23977); assay: Inhibition of [3H]dopamine uptake at dopamine transporter expressed in rat striatal homogenate after 5 mins by scintillation counting analysis relative to (+)-amphetamine
Sodium-dependent dopamine transporter (Rattus norvegicus), sequence (P23977 whole entry): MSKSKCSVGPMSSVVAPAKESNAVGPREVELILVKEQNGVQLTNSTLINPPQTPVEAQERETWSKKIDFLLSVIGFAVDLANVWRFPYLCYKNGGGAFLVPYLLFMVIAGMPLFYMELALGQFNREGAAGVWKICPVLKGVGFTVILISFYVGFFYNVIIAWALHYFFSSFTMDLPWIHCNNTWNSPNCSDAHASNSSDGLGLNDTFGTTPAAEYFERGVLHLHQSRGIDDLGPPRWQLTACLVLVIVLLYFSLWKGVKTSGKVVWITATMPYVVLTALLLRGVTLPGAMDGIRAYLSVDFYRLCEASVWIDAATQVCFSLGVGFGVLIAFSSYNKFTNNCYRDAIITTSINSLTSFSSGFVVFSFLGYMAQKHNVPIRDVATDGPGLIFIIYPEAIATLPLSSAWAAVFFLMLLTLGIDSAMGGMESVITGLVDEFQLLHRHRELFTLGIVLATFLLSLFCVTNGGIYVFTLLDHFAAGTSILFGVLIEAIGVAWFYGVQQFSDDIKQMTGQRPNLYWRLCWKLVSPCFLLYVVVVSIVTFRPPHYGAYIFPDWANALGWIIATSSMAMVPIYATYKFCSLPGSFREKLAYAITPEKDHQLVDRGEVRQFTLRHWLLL

[2] = target: Sodium-dependent dopamine transporter (Rattus norvegicus, UniProt P23977); assay: Inhibition of [3H]dopamine uptake at dopamine transporter expressed in rat striatal homogenate after 5 mins by scintillation counting analysis
Sodium-dependent dopamine transporter, sequence (P23977 whole entry): as above

Transporter = Transporter (Rattus norvegicus, UniProt Q63380); assay: Inhibition of [3H]norepinephrine uptake at NET expressed in rat hypothalamic homogenate containing synaptosomes after 5 mins by scintillation counting analysis; format: subcellular, Brain
Transporter, sequence (Q63380 whole entry): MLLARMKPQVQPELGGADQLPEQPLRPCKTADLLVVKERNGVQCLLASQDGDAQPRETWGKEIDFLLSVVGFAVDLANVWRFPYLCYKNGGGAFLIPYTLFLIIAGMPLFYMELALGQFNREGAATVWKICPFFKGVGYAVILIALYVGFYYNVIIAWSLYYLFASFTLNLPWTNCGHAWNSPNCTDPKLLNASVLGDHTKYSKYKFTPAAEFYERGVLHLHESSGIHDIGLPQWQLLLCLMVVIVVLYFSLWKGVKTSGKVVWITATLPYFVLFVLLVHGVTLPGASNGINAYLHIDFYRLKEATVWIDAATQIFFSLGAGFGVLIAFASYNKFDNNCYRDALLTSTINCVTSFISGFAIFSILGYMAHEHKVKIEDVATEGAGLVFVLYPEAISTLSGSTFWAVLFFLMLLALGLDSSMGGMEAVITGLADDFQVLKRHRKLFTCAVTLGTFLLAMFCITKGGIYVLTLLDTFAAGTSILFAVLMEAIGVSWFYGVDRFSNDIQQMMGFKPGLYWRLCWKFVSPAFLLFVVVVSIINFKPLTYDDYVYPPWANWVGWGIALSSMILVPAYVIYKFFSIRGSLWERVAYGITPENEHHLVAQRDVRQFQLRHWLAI

`NC1C[C@@H]2CCCC[C@H]2CC1(O)c1ccc(O)c(O)c1` (mixture of isomers; form 3) gave a fold change (FC) (Rattus norvegicus) of 0.03 and a fold change (FC) [1] of 1.1.

In the case of `NC1C[C@@H]2CCCC[C@H]2CC1(O)c1ccc(O)c(O)c1` (mixture of isomers; form 4), the fold change (FC) (Rattus norvegicus) is reported as 2 and the fold change (FC) [1] is reported as 5.7.

Work on `NC1C[C@@H]2CCCC[C@H]2CC1c1ccccc1` (mixture of isomers; 4) [listing 1 of 2 here] yielded a fold change (FC) (Rattus norvegicus) of 3.6 and a fold change (FC) [1] of 14.

In the case of `NC1C[C@@H]2CCCC[C@H]2CC1(O)c1ccc(O)c(O)c1` (mixture of isomers; form 1), the fold change (FC) (Rattus norvegicus) is reported as 4.4 and the fold change (FC) [1] is reported as 2.3.

`NC1C[C@@H]2CCCC[C@H]2CC1c1ccccc1` (mixture of isomers; 3) [listing 1 of 2 here] showed an IC50 [2] of 20 µM and an IC50 (Transporter) of 9 µM.

`NC1C[C@@H]2CCCC[C@H]2CC1c1ccccc1` (mixture of isomers; 1) [listing 1 of 2 here] showed an IC50 [2] of 3.8 µM and an IC50 (Transporter) of 0.66 µM.

`NC1C[C@@H]2CCCC[C@H]2CC1c1ccccc1` (mixture of isomers; 2) [listing 1 of 2 here] was tested, and the fold change (FC) (Rattus norvegicus) was 1.1 and the fold change (FC) [1] was 8.

Work on `NC[C@H](O)c1ccc(O)c(O)c1` yielded a fold change (FC) (Rattus norvegicus) of 100 and a fold change (FC) [1] of 100.

`NC1C[C@@H]2CCCC[C@H]2CC1c1ccccc1` (mixture of isomers; 1) [listing 2 of 2 here] gave a fold change (FC) (Rattus norvegicus) of 30 and a fold change (FC) [1] of 25.

`NC1C[C@@H]2CCCC[C@H]2CC1c1ccccc1` (mixture of isomers; 2) [listing 2 of 2 here] was tested, and the IC50 [2] was 12 µM and the IC50 (Transporter) was 18 µM.

In the case of `NC1C[C@@H]2CCCC[C@H]2CC1c1ccccc1` (mixture of isomers; 4) [listing 2 of 2 here], the IC50 [2] is reported as 7 µM and the IC50 (Transporter) is reported as 5.5 µM.

`NC1C[C@@H]2CCCC[C@H]2CC1(O)c1ccc(O)c(O)c1` (mixture of isomers; form 2) showed a fold change (FC) (Rattus norvegicus) of 8.9 and a fold change (FC) [1] of 50.

Work on `NC1C[C@@H]2CCCC[C@H]2CC1c1ccccc1` (mixture of isomers; 3) [listing 2 of 2 here] yielded a fold change (FC) (Rattus norvegicus) of 2.2 and a fold change (FC) [1] of 4.8.
